In patent EP0226508A1, “Indolo[3,2-c]quinoline derivatives, process for their preparation and their anti-tumour activity” (priority 1985, dated 1987):
“And” between values parts separate entries of the source, which are not always exact repeats. Equal values may be shown once.

Legend:
[1] = system: lignée tumorale leucémie L 1210; assay: In vitro cytotoxic activity on L 1210 leukemia cell culture (inhibition of cell proliferation); assay type: cell-based; conditions: Mus musculus, L1210; L 1210 culture in exponential growth, 37°C, after 48 hours of contact; read-out: ID 50 (the source's name)
Protocol: 1) In vitro : (PAOLETTI et al., Chem. Biol. Interaction, 1979, 25, 45-58).
L'activité cytotoxique des composés de l'invention a été évaluée par des essais in vitro. Ces essais consistent à ajouter des concentrations croissantes du composé à tester à une culture cellulaire de la lignée tumorale leucémie L 1210 en phase exponentielle de croissance. Les cellules sont incubées à 37°C dans une étuve à CO₂ et comptées toutes les 24 heures. Le calcul de l'ID₅₀ (concentration du produit exprimée en micromole 1⁻¹ qui inhibe la prolifération cellulaire à 50 p. 100) est effectuée après 48 heures de contact. Ainsi déterminées les ID₅₀ des composés de l'invention sont rassemblées dans le tableau ci-après.

mélanome B 16 = assay: In vivo antitumour activity, B 16 melanoma test; design: species or system souris hybrides BDF₁; conditions: B 16 melanoma, BDF₁ mice, 1 mg/kg i.p. J1-J9
From the text: (§1) L'activité antitumorale a été testée in vivo sur différentes tumeurs selon le protocole général suivant:
(§2) Toutes les souris mâles ou femelles sont inoculées par voie intrapéritonéale au jour Jo avec une quantité déterminée de cellules tumorales viables, variable selon la tumeur.
(§3) Elles sont ensuite réparties en différents lots. Chaque lot correspondant aux animaux traités par le produit à tester à une dose déterminée est composé de 10 souris. Dans ce cas, le produit à tester est dissous dans l'eau distillée et il est administré, pendant n jours (J₁-Jn) variables selon le protocole choisi, par voie intrapéritonéale à raison de 0,1 ml par 10 g de poids des souris traitées, les doses du produit administré étant précisées dans les tableaux ci-dessous.
(§4) Le lot "contrôle négatif", correspondant aux animaux qui ne sont pas traités par un produit, comprend 2 √N animaux, N étant égal au nombre total de souris traitées par un produit.
(§5) Enfin, tous les essais sont conduits parallèlement à l'étude d'un lot appelé "contrôle positif" de 10 animaux qui est traité par une molécule active, variable selon le protocole choisi, dans les mêmes conditions que les lots traités par le produit à tester, afin de valider l'essai.
(§6) L'activité antitumorale est évaluée en considé-rant l'augmentation du temps de survie des animaux traités par rapport à celui des animaux du lot "contrôle négatif" selon la formule : [formula]
(§7) Le produit est également considéré comme toxique lorsque la variation pondérale, exprimée en grammes et calculée par la formule : Poids moyen du lot mesuré au jour 5 -poids moyen du même lot au jour 1 est égale ou inférieure à - 4 g.
Les essais sont effectués avec des souris hybrides BDF₁ inoculées avec 0,5 ml d'un homogénat de mélanome B 16 réalisé à partir de 1 g de tumeur dans 10 ml de sérum physiologique. Le composé à tester est administré pendant 9 jours (J₁-J₉).Le contrôle positif du test est le Cis-Platine administré dans les mêmes conditions. Le nombre d'animaux survivants est évalué au jour J 60.

leucémie L 1210 = assay: In vivo antitumour activity, L 1210 leukemia test; design: species or system souris hybrides CDF₁; conditions: L 1210, CDF₁ mice, 20 mg/kg i.p. J1-J5; for Jour médian de survie / T/C %: 20 mg/kg
From the text: as §1, §2, §3, §4, §5, §6
as §7, with “Un composé est considéré comme étant actif lorsque la valeur du rapport T/C est égale ou supérieure à 125 % selon le protocole retenu. Il est toxique lorsque cette valeur est égale ou inférieure à 85 %. Le” for “Le”
b) Test de la leucémie L 1210 (GERAN et al., Cancer Chemother, 1972, 2, 07-57).
Les essais sont effectués avec des souris hybrides CDF₁ inoculées avec 10⁵ cellules leucémiques de la lignée L 1210. Le composé à tester est administré pendant 5 jours (J₁-J₅).Le contrôle positif du test est le 5-fluorouracile administré dans les mêmes conditions. Le nombre d'animaux survivants est évalué au jour J 30. Un composé est considéré comme étant actif lorsque le rapport T/C est supérieur ou égal à 125 %.

leucémie P 388 = assay: animal or person; assay type: in vivo, souris hybrides CDF 1; conditions: P 388, CDF 1 mice, 20 mg/kg i.p. J1-J5; survivors at J 40
From the text: as §1, §2, §3, §4, §5, §6
as §7, with “Un composé est considéré comme étant actif lorsque la valeur du rapport T/C est égale ou supérieure à 125 % selon le protocole retenu. Il est toxique lorsque cette valeur est égale ou inférieure à 85 %. Le” for “Le”
a) Test de la leucémie P 388 (GERAN et al., Cancer Chemother, 1972, 2, 07-57).
Les essais sont effectués avec des souris hybrides CDF 1 inoculées par voie intrapéritonéale avec 10⁶ cellules leucémiques de la lignée P 388. Le composé à tester est administré pendant 5 jours (J1-J5). Le contrôle positif du test est le 5-fluorouracile qui est administré dans les mêmes conditions. Le nombre d'animaux survivants est évalué au jour J 40. Un composé est considéré comme étant actif lorsque le rapport T/C est supérieur à 127 %.

For `CCN(CC)CCNc1nc2ccccc2c2[nH]c3ccc(O)cc3c12` [Dérivé N°13, (diéthylamino-2 éthylamino)-6 hydroxy-8 11-H indolo[3,2-c]quinoléine], the IC50 [1] was 2600 nM.
In the case of `COc1ccc2[nH]c3c4ccccc4nc(NCCCN(C)C)c3c2c1` [Dérivé N°6, (diméthylamino-3 propylamino)-6 méthoxy-8 11-H indolo [3,2-c]quinoléine], the IC50 [1] is reported as 800 nM.
In the case of `[NH2][Pt]([NH2])([Cl])[Cl]` [Cis-Platine, reference compound], the “Jour médian de survie” value (mélanome B 16; 1 mg/kg) is reported as 39 and 37, the T/C % (mélanome B 16; 1 mg/kg) is reported as 140% and 142% and 157% and the Nombre de survivants (mélanome B 16; survivors at J 60) is reported as 0.
`CCNCCCNc1nc2ccccc2c2[nH]c3ccc(OC)cc3c12` [Dérivé N°10, (éthylamino-3 propylamino)-6 méthoxy-8 11-H indolo [3,2-c]quinoléine] was tested, and the IC50 [1] was 580 nM.
For `O=c1[nH]cc(F)c(=O)[nH]1` [5 - Fluoro-uracile, 5-fluorouracile, reference compound], the “Jour médian de survie” value (leucémie L 1210) was 15,7 and 14,5, the T/C % (leucémie L 1210) was 191% and 183% and the “Jour médian de survie” value (leucémie L 1210; listed as 5 Fluoro-uracile) was 15,5. It also gave a T/C % (leucémie L 1210; listed as 5 Fluoro-uracile) of 174%, a Nombre de survivants (leucémie L 1210; survivors at J 30) of 0 and a Nombre de survivants (leucémie P 388) of 0.
In the case of `CCN(CC)CCNc1nc2ccccc2c2[nH]c3ccc(OC)cc3c12` [Dérivé N°7, (diéthylamino-2 éthylamino)-6 méthoxy-8 11-H indolo[3,2-c]quinoléine], the IC50 [1] is reported as 2100 nM.
For `COc1ccc2[nH]c3c4ccccc4nc(NCCCN4CCCCC4)c3c2c1` [Dérivé N°9, méthoxy-8 (pipéridino-3 propylamino)-6 11-H indolo [3,2-c]quinoléine], the IC50 [1] was 640 nM.
With `COc1ccc2[nH]c3c4ccccc4nc(NCCCN4CCOCC4)c3c2c1` [Dérivé N°8, méthoxy-8 (morpholino-3 propylamino)-6 11-H indolo[3,2-c]quinoléine] the IC50 [1] was 610 nM.
In the case of `COc1ccc2c(c1)c1c(NCCCN(C)C)nc3ccccc3c1n2C` [Dérivé N°2, (diméthylamino-3 propylamino)-6 méthoxy-8 méthyl-11 11-H indolo[3,2-c]quinoléine], the IC50 [1] is reported as 400 nM.
